{"source": "PubChem BioAssay AID2060497", "about": "(Molecular Pharmacology Branch, DTP, NCI, 2025);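 also: spheroids exposed to compounds for one week before readout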;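 as to viability, T/C: percent viability relative to DMSO vehicle wells taken as 100%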", "test_system": "317291-083-R-J1-PDC complex spheroids, viability", "assay": "Anticancer human tumor 317291-083-R-J1-PDC patient-derived soft tissue sarcoma cell line growth inhibition [GQUAD]", "details": "for IC50: curve of first compound; for viability, T/C: stronger effect = lower value", "method_in_brief": "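Tumor cells were grown as complex spheroids with HUVEC endothelial cells and mesenchymal stem cells as stroma. G-quadruplex stabilizers were combined with targeted agents over half-log dilutions from near the clinical Cmax, or from 10 microM.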", "data": [{"smiles": "COc1ncnc(C2CC2)c1-c1ncc2cnn(Cc3ccc(-c4nc(C(F)(F)F)cn4C(C)C)cc3)c2n1", "note": "+ Cc1cnc(CNC(=O)c2c(=O)c3ccc(N4CCCN(C)CC4)nc3n3c2sc2ccccc23)cn1", "values": [{"measurement": "IC50", "setting": "second compound 0.0316 µM", "result": "> 10", "unit": "µM"}, {"measurement": "IC50", "setting": "second compound 0.1 µM", "result": 0.138, "unit": "µM"}, {"measurement": "IC50", "setting": "second compound 0.316 µM", "result": 0.373, "unit": "µM"}, {"measurement": "IC50", "setting": "second compound 1 µM", "result": "< 0.0316", "unit": "µM"}, {"measurement": "IC50", "setting": "second compound 3.16 µM", "result": "< 0.0316", "unit": "µM"}, {"measurement": "IC50", "setting": "second compound 10 µM", "result": "< 0.0316", "unit": "µM"}, {"measurement": "viability, T/C", "setting": "second compound 0.0316 µM, first compound 0.0316 µM", "result": 78.3, "unit": "%"}, {"measurement": "viability, T/C", "setting": "second compound 0.0316 µM, first compound 0.1 µM", "result": 76.8, "unit": "%"}, {"measurement": "viability, T/C", "setting": "second compound 0.0316 µM, first compound 0.316 µM", "result": 71.6, "unit": "%"}, {"measurement": "viability, T/C", "setting": "second compound 0.0316 µM, first compound 1 µM", "result": 72.2, "unit": "%"}, {"measurement": "viability, T/C", "setting": "second compound 0.0316 µM, first compound 3.16 µM", "result": 67, "unit": "%"}, {"measurement": "viability, T/C", "setting": "second compound 0.0316 µM, first compound 10 µM", "result": 54.1, "unit": "%"}, {"measurement": "viability, T/C", "setting": "second compound 0.1 µM, first compound 0.0316 µM", "result": 59.5, "unit": "%"}, {"measurement": "viability, T/C", "setting": "second compound 0.1 µM, first compound 0.1 µM", "result": 51.1, "unit": "%"}, {"measurement": "viability, T/C", "setting": "second compound 0.1 µM, first compound 0.316 µM", "result": 47.3, "unit": "%"}, {"measurement": "viability, T/C", "setting": "second compound 0.1 µM, first compound 1 µM", "result": 39.3, "unit": "%"}, {"measurement": "viability, T/C", "setting": "second compound 0.1 µM, first compound 3.16 µM", "result": 56.1, "unit": "%"}, {"measurement": "viability, T/C", "setting": "second compound 0.1 µM, first compound 10 µM", "result": 53, "unit": "%"}, {"measurement": "viability, T/C", "setting": "second compound 0.316 µM, first compound 0.0316 µM", "result": 46.6, "unit": "%"}, {"measurement": "viability, T/C", "setting": "second compound 0.316 µM, first compound 0.1 µM", "result": 48.1, "unit": "%"}, {"measurement": "viability, T/C", "setting": "second compound 0.316 µM, first compound 0.316 µM", "result": 63.6, "unit": "%"}, {"measurement": "viability, T/C", "setting": "second compound 0.316 µM, first compound 1 µM", "result": 31.2, "unit": "%"}, {"measurement": "viability, T/C", "setting": "second compound 0.316 µM, first compound 3.16 µM", "result": 37.4, "unit": "%"}, {"measurement": "viability, T/C", "setting": "second compound 0.316 µM, first compound 10 µM", "result": 32, "unit": "%"}, {"measurement": "viability, T/C", "setting": "second compound 1 µM, first compound 0.0316 µM", "result": 31.3, "unit": "%"}, {"measurement": "viability, T/C", "setting": "second compound 1 µM, first compound 0.1 µM", "result": 36.8, "unit": "%"}, {"measurement": "viability, T/C", "setting": "second compound 1 µM, first compound 0.316 µM", "result": 44.1, "unit": "%"}, {"measurement": "viability, T/C", "setting": "second compound 1 µM, first compound 1 µM", "result": 30.5, "unit": "%"}, {"measurement": "viability, T/C", "setting": "second compound 1 µM, first compound 3.16 µM", "result": 32.3, "unit": "%"}, {"measurement": "viability, T/C", "setting": "second compound 1 µM, first compound 10 µM", "result": 25.8, "unit": "%"}, {"measurement": "viability, T/C", "setting": "second compound 3.16 µM, first compound 0.0316 µM", "result": 20.5, "unit": "%"}, {"measurement": "viability, T/C", "setting": "second compound 3.16 µM, first compound 0.1 µM", "result": 13.6, "unit": "%"}, {"measurement": "viability, T/C", "setting": "second compound 3.16 µM, first compound 0.316 µM", "result": 30, "unit": "%"}, {"measurement": "viability, T/C", "setting": "second compound 3.16 µM, first compound 1 µM", "result": 15.5, "unit": "%"}, {"measurement": "viability, T/C", "setting": "second compound 3.16 µM, first compound 3.16 µM", "result": 16.2, "unit": "%"}, {"measurement": "viability, T/C", "setting": "second compound 3.16 µM, first compound 10 µM", "result": 21.2, "unit": "%"}, {"measurement": "viability, T/C", "setting": "second compound 10 µM, first compound 0.0316 µM", "result": 0.63, "unit": "%"}, {"measurement": "viability, T/C", "setting": "second compound 10 µM, first compound 0.1 µM", "result": 0.19, "unit": "%"}, {"measurement": "viability, T/C", "setting": "second compound 10 µM, first compound 0.316 µM", "result": 0.22, "unit": "%"}, {"measurement": "viability, T/C", "setting": "second compound 10 µM, first compound 1 µM", "result": 0.19, "unit": "%"}, {"measurement": "viability, T/C", "setting": "second compound 10 µM, first compound 3.16 µM", "result": 0.26, "unit": "%"}, {"measurement": "viability, T/C", "setting": "second compound 10 µM, first compound 10 µM", "result": 0.24, "unit": "%"}]}]}
